# Reference: EP0953355A1, “REMEDY FOR AUTOIMMUNE DISEASES” (Sankyo Company, Limited, priority 1996, dated 1997)
# Columns and labels:
# islet β cells = experiment: Inhibitory effect on lymphocyte invasion (streptozotocin-induced autoimmunity to islet β cells); format: in vivo, DBA/2 mice; settings: for islet cells invaded by lymphocytes in all mice: 0.1% in feed; for Degree of lymphocyte invasion 0 to 40% / Degree of lymphocyte invasion 40 to 60%: percentage of mice within this range, oral, streptozotocin 40 mg/kg i.p. for 5 days
# Protocol: Streptozotocin was administered intraperitoneally for 5 days to 8-week-old DBA/2 mice at 40 mg/kg to induce autoimmunity of islet β cells. […] Mice in the control group were given only powdered feed during the same period.
# (§1) Blood samples were collected from the tail vein before the start, during and on the final day of streptozotocin administration. The blood samples were centrifuged to obtain plasma, and the glucose levels of the obtained plasma were measured with a glucose analyzer (Sino-Test Co., Ltd.). In the figure, glucose levels (mg/dl) are plotted on the vertical axis, while time (days) is plotted on the horizontal axis. [drawing]
# The mice used in the experiment were sacrificed following measurement of glucose levels on the final day of pioglitazone administration. The pancreas of each animal was excised and fixed with bouian solution. Thin tissue slices were prepared from the pancreas and the degree of lymphocyte invasion into islet cells was observed by a light microscope. […] Moreover, the degree of lymphocyte invasion was classified as either 0 to 40% or 40 to 60%. The number of mice classified within each range was illustrated in Table 3 as a percentage (%) relative to the total number of mice in the pioglitazone administration group and control groups.
# Streptozotocin was administered intraperitoneally for 5 days to 8-week-old DBA/2 mice at 40 mg/kg to induce autoimmunity of islet β cells. […] Control mice were given only powdered feed during the same period.
# as §1, with “(Sinotest).” for “(Sino-Test Co., Ltd.).”
# The mice used in the experiment were sacrificed following measurement of glucose levels on the final day of drug administration. The pancreas of each animal was excised and fixed with bouian solution. Thin tissue slices were prepared from the pancreas and the degree of lymphocyte invasion into islet cells was observed by a light microscope. […] Moreover, the degree of lymphocyte invasion of each mouse was classified as either 0 to 40% or 40 to 60%.
# Lewis rats = experiment: Inhibitory effect on bone destruction induced by adjuvant arthritis; format: in vivo; settings: for inhibition of bone destruction as compared with the control group / bone destruction compared with the control group: Wilcoxon test; for Bone Destruction Score (points): right hind paw, day 21, maximum score 8, groups of 5; for Bone Destruction Inhibition Rate (%): versus control group
# Protocol: The inhibitory effect was determined in a similar manner to that of Winder, et al. (Arthritis Rheum., Vol. 12, p. 472, 1969). Using Lewis rats (females, age 8-10 weeks, body weights: 160-200 g, Japan Charles River) in groups of 5 each, adjuvant (heat-killed Mycobacterium butyricum)was injected intradermally into the right hind paw of each rat at 100 µg/0.05 ml/paw to induce arthritis. The rats were orally administered troglitazone at 0.2%, pioglitazone at 0.05% and BRL-49653 at 0.005%, respectively, by mixing in powdered feed until day 20 taking the day of injection of adjuvant to be day 0. Rats in a control group were given powdered feed only during the same period. The rats were sacrificed on day 21. After excising the right hind paw (the injected paw), soft X-rays were taken of each paw to observe and score the state of bone destruction. Bone destruction was scored by evaluating into 5 ranks consisting of 0, 1, 2, 3 and 4, assigning 0 points in the absence of bone destruction (normal) and increasing scores depending on the state of joint destruction, bone destruction, deformation and osteophyte formation. The worst state of such bone disorders was assigned a score of 4. The bone disorders were scored at two locations, the calcaneus and the location extending from the tarsal bones to the metatarsal bones. Thus, the score for each animal was determined by calculating the total score for the two locations and the maximum score was 8 points.
# The inhibitory effect was determined according to the methods of Winder, et al. (Arthritis Rheum., Vol. 12, p. 472, 1969). Using Lewis rats (females, age 8-10 weeks, body weights: 160 to 200 g, Japan Charles River) in groups of 5 each, adjuvant (heat-killed Mycobacterium butyricum)was injected intradermally into the sole of the right hind paw of each rat at 100 µg/0.05 ml/paw to induce arthritis. The rats were orally administered Compound A at 0.1% and Compound B at 0.1%, respectively, by mixing in powdered feed until day 20 taking the day of injection of adjuvant to be day 0. Rats in a control group were given powdered feed only during the same period. The rats were sacrificed on day 21. After excising the right hind paw (the injected paw), soft X-rays were taken of each paw to observe and score the state of bone destruction. Bone destruction was scored by evaluating into 5 ranks consisting of 0, 1, 2, 3 and 4, assigning 0 points in the absence of bone destruction (normal) and increasing scores depending on the state of joint destruction, bone destruction, deformation and osteophyte formation. The worst state of bone destruction was assigned a score of 4. Bone destruction was scored at two locations, the calcaneus and the location extending from the tarsal bones to the metatarsal bones. Thus, the score for each animal was determined by calculating the total score for the two locations and the maximum score was 8 points.
# ddY mice = format: in vivo; settings: 300 mg/kg oral, three ddY mice (males), observed for 5 days
# Protocol: Acute toxicity was determined in accordance with conventional methods. […] 2, 3,4 and 10, all acute toxicities of these compounds were determined to be 300 mg/kg and more after oral administration of them.
# [1] = Example 4, from Fig. 3 (plasma glucose levels) and Table 4
# [2] = 0.1% in F2 powdered feed (BRL-49653: 125 mg/kg/day, Compound A: 94 mg/kg/day), 31 days
# [3] = Example 2, in powdered feed until day 20: troglitazone 0.2%, pioglitazone 0.05%, BRL-49653 0.005%
# [4] = Example 5, 0.1% in powdered feed until day 20
# [5] = 0.2% in F2 powdered feed (236 mg/kg/day), 38 days
# [6] = 0.2% in F2 powdered feed (240 mg/kg/day), 38 days
SMILES,"islet cells invaded by lymphocytes in all mice (islet β cells; Example 4, 31 days)",onset of autoimmune disease (islet β cells; [1]),Degree of lymphocyte invasion 0 to 40% (islet β cells; [2]),Degree of lymphocyte invasion 40 to 60% (islet β cells; [2]),inhibition of bone destruction as compared with the control group (Lewis rats; Example 2),Bone Destruction Score (points) (Lewis rats; [3]),Bone Destruction Inhibition Rate (%) (Lewis rats; [3]),Bone Destruction Score (points) (Lewis rats; [4]),Bone Destruction Inhibition Rate (%) (Lewis rats; [4]),bone destruction compared with the control group (Lewis rats; Example 5),further results
"CN(CCOc1ccc(CC2SC(=O)NC2=O)cc1)c1ccccn1 (centres unmarked) [BRL-49653, 5-{4-[2-(N-methyl-N-(2-pyridyl)amino)ethoxy]benzyl}thiazolidine-2,4-dione]",less than 40%,suppresses the onset of autoimmune disease,100%,0%,exhibited inhibition of bone destruction,4.8 ± 1.2 points,35.1%,–,–,–,–
"CC(=NOCCOc1ccc(CC2SC(=O)NC2=O)cc1)c1ccc(-c2ccccn2)cc1 (centres unmarked) [Compound A, 5-[4-[2-[[[1-[4-(2-pyridyl)phenyl]ethylidene]amino]oxy]ethoxy]benzyl]thiazolidine-2,4-dione]",less than 40%,suppresses the onset of autoimmune disease,100%,0%,–,–,–,6.6 ± 0.7 points,17.5%,tended to be inhibited,–
"COc1ccc2nc(COc3ccc(CC4SC(=O)NC4=O)cc3)n(C)c2c1 (centres unmarked) [Compound B, 5-[4-(6-methoxy-1-methylbenzimidazol-2-ylmethoxy)benzyl]thiazolidine-2,4-dione]",–,–,–,–,–,–,–,6.6 ± 0.8 points,17.5%,tended to be inhibited,–
"CCc1ccc(CCOc2ccc(CC3SC(=O)NC3=O)cc2)nc1 (centres unmarked) [Pioglitazone, 5-{4-[2-(5-ethyl-2-pyridyl)ethoxy]benzyl}-2,4-thiazolidinedione]",–,–,–,–,exhibited inhibition of bone destruction,4.4 ± 1.0 points,40.5%,–,–,–,"degree of lymphocyte invasion into islet cells in all mice (islet β cells; Example 3, 0.2% in feed (236 mg/kg/day), 38 days): ≤ 40%; onset of autoimmune disease (islet β cells; Example 3, on the basis of Fig. 2 (plasma glucose levels) and Table 3): suppresses the onset of autoimmune disease; Degree of lymphocyte invasion 0 to 40% (islet β cells; [5]): 100%; Degree of lymphocyte invasion 40 to 60% (islet β cells; [5]): 0%"
"Cc1c(C)c2c(c(C)c1O)CCC(C)(COc1ccc(CC3SC(=O)NC3=O)cc1)O2 (centres unmarked) [Troglitazone, 5-[4-(6-hydroxy-2,5,7,8-tetramethylchroman-2-ylmethoxy)benzyl]thiazolidine-2,4-dione]",–,–,–,–,significant inhibition of bone destruction,5.4 ± 0.2 points,27.0%,–,–,–,"degree of lymphocyte invasion into islet cells in all mice (islet β cells; Example 1, 0.2% in feed (240 mg/kg/day), 38 days): ≤ 40%; onset of autoimmune disease (islet β cells; Example 1, on the basis of Fig. 1 (plasma glucose levels) and Table 1): suppresses the onset of autoimmune disease; Degree of lymphocyte invasion 0 to 40% (islet β cells; [6]): 100%; Degree of lymphocyte invasion 40 to 60% (islet β cells; [6]): 0%; survival (ddY mice): All animals survived"
